Reference: PMC9747329 (ACS chemical biology, 2022)
Non-standard residues stand in square brackets, D forms with d. Residues, ends and D or L forms follow the SMILES beside them. *: point of attachment. X1 = CN(C)c1ccc2c(-c3cc(C(=O)*)ccc3C(=O)[O-])c3ccc(=[N+](C)C)cc-3oc2c1; hArg = N=C(N)NCCCC[C@H](N)C(=O)O; Aib = CC(C)(N)C(=O)O

Tests used:
[1] = target: T1, nLuc-ΔECD-PTHR1 (Homo sapiens, UniProt Q03431); test: NanoBRET direct binding on truncated receptor lacking the extracellular domain
T1 sequence (Q03431 182-593 limits assumed): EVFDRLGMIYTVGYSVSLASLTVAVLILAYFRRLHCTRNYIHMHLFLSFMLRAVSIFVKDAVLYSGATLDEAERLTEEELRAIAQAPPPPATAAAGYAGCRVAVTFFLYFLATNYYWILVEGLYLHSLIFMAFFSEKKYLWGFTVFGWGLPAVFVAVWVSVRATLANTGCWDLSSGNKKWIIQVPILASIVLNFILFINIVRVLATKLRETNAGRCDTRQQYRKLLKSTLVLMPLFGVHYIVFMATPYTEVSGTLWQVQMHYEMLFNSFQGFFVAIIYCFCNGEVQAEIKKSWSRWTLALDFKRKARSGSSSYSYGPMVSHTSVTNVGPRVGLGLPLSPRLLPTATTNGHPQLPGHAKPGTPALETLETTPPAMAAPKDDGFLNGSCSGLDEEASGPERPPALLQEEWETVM

[2] = target: T2, nLuc-PTHR1 (Homo sapiens, UniProt Q03431); assay type: binding; conditions: HEK293
T2 sequence (Q03431 27-593): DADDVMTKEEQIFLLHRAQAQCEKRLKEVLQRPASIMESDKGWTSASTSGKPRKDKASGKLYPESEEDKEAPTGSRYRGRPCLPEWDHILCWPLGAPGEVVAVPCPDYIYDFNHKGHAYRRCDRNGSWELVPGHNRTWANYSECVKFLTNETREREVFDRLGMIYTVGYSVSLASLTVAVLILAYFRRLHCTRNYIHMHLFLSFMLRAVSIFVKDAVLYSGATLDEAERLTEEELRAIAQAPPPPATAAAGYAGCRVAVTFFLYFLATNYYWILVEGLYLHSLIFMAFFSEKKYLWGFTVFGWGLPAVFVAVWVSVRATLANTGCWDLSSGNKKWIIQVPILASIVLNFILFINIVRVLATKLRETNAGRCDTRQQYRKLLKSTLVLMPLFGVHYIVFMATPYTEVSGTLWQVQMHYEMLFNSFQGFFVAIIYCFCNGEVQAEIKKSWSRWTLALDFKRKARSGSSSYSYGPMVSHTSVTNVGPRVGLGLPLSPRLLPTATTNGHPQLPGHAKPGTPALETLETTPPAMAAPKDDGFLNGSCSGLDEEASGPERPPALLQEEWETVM

[3] = target: T3, WT-PTHR1 (Homo sapiens, UniProt Q03431); test: GloSensor cAMP assay in GP2.3 cells; assay type: cell-based; conditions: HEK293, read-out: cAMP formation %Emax
T3 sequence (Q03431 27-593): T2 sequence (Q03431 27-593)

[4] = target: T2, nLuc-PTHR1; test: NanoBRET equilibrium competition binding with tracer PTH; conditions: ABL up to 1 μM

| Compound | koff [1] [s⁻¹] | kon [1] [M⁻¹ s⁻¹] | koff [2] [s⁻¹] | kon [2] [M⁻¹ s⁻¹] | Emax [3] [%] | displacement of PTH(1-34)K35^TMR tracer (in words) [4] |
| --- | --- | --- | --- | --- | --- | --- |
| CC[C@H](C)[C@H](NC(=O)[C@H](CCC(=O)O)NC(=O)C(C)(C)NC(=O)[C@@H](NC(=O)C(C)(C)N)C(C)C)C(=O)N[C@@H](CCC(N)=O)C(=O)N[C@@H](CC(C)C)C(=O)N[C@@H](CCSC)C(=O)N[C@@H](Cc1c[nH]cn1)C(=O)N[C@@H](CCC(N)=O)C(=O)N[C@@H](CCCCNC(=N)N)C(=O)N[C@@H](C)C(=O)N[C@@H](CCCCN)C(=O)N[C@@H](Cc1c[nH]c2ccccc12)C(=O)N[C@@H](CCCCNC(=O)c1ccc(C(=O)[O-])c(-c2c3ccc(=[N+](C)C)cc-3oc3cc(N(C)C)ccc23)c1)C(N)=O [M-PTH(1-14)-15K^TMR] (H-[Aib]V[Aib]EIQLMHQ[hArg]AKWK(X1)-NH2; N-terminus assumed) | 0.018 ± 0.003 | 180000 ± 50000 | 0.024 ± 0.001 | 77000 ± 20000 |  |  |
| CC[C@H](C)[C@H](NC(=O)[C@H](CC(C)C)NC(=O)[C@H](CCCCN)NC(=O)[C@H](Cc1c[nH]cn1)NC(=O)[C@H](CC(C)C)NC(=O)[C@H](Cc1ccccc1)NC(=O)[C@H](C)NC(=O)[C@H](CCCNC(=N)N)NC(=O)[C@H](CCCNC(=N)N)NC(=O)[C@H](CCCNC(=N)N)NC(=O)[C@H](C)NC(=O)[C@H](CC(=O)O)NC(=O)[C@H](CCC(N)=O)NC(=O)[C@@H](NC(=O)[C@H](Cc1c[nH]c2ccccc12)NC(=O)[C@H](CCCCN)NC(=O)[C@H](C)NC(=O)[C@H](CCCNC(=N)N)NC(=O)[C@H](CCC(N)=O)NC(=O)[C@H](Cc1c[nH]cn1)NC(=O)[C@H](CCSC)NC(=O)[C@H](CC(C)C)NC(=O)[C@H](CCC(N)=O)NC(=O)[C@@H](NC(=O)[C@H](CCC(=O)O)NC(=O)[C@H](C)NC(=O)[C@@H](NC(=O)[C@H](C)N)C(C)C)[C@@H](C)CC)[C@@H](C)CC)C(=O)N[C@@H](C)C(=O)N[C@@H](CCC(=O)O)C(=O)N[C@H](C(=O)N[C@@H](Cc1c[nH]cn1)C(=O)N[C@H](C(=O)N[C@@H](C)C(=O)N[C@@H](CCCCNC(=O)c1ccc(C(=O)[O-])c(-c2c3ccc(=[N+](C)C)cc-3oc3cc(N(C)C)ccc23)c1)C(N)=O)[C@@H](C)O)[C@@H](C)CC [LA-PTH(1-34)-35K^TMR] (H-AVAEIQLMHQRAKWIQDARRRAFLHKLIAEIHTAK(X1)-NH2; N-terminus assumed) | 0.0097 ± 0.003 | 130000 ± 10000 | 0.00056 ± 0.0002 | 230000 ± 40000 |  |  |
| CC[C@H](C)[C@H](NC(=O)[C@H](CCCCNC(=O)c1ccc(C(=O)[O-])c(-c2c3ccc(=[N+](C)C)cc-3oc3cc(N(C)C)ccc23)c1)NC(=O)[C@H](C)NC(=O)[C@@H](NC(=O)[C@H](Cc1c[nH]cn1)NC(=O)[C@@H](NC(=O)[C@H](CCC(=O)O)NC(=O)[C@H](C)NC(=O)[C@@H](NC(=O)[C@H](CC(C)C)NC(=O)[C@H](Cc1c[nH]cn1)NC(=O)[C@H](Cc1c[nH]cn1)NC(=O)[C@H](CC(C)C)NC(=O)[C@H](Cc1ccccc1)NC(=O)[C@H](Cc1ccccc1)NC(=O)[C@H](CCCNC(=N)N)NC(=O)[C@H](CCCNC(=N)N)NC(=O)[C@H](CCCNC(=N)N)NC(=O)[C@H](CCSC)NC(=O)[C@H](CO)NC(=O)[C@H](CC(N)=O)NC(=O)[C@H](CC(C)C)NC(=O)[C@H](Cc1c[nH]cn1)NC(=O)[C@H](CCCCN)NC(=O)CNC(=O)[C@H](CC(C)C)NC(=O)[C@H](CC(N)=O)NC(=O)[C@H](Cc1c[nH]cn1)NC(=O)[C@H](CCSC)NC(=O)[C@H](CC(C)C)NC(=O)[C@H](CCC(N)=O)NC(=O)[C@@H](NC(=O)[C@H](CCC(=O)O)NC(=O)[C@H](CO)NC(=O)[C@@H](NC(=O)[C@@H](N)CO)C(C)C)[C@@H](C)CC)[C@@H](C)CC)[C@@H](C)CC)[C@@H](C)O)C(N)=O [PTH[1-18] PTHrP[19-36]] (H-SVSEIQLMHNLGKHLNSMRRRFFLHHLIAEIHTAK(X1)I-NH2; N-terminus assumed) |  |  | 0.0079 ± 0.001 | 320000 ± 70000 | 106 ± 1 |  |
| ABL: synthetic analogue of PTHrP(1-34) used clinically for osteoporosis |  |  |  |  |  | failed to fully inhibit |
| CC[C@H](C)[C@H](NC(=O)[C@H](CCCCNC(=O)c1ccc(C(=O)[O-])c(-c2c3ccc(=[N+](C)C)cc-3oc3cc(N(C)C)ccc23)c1)NC(=O)[C@H](C)NC(=O)[C@@H](NC(=O)[C@H](Cc1c[nH]cn1)NC(=O)[C@@H](NC(=O)[C@H](CCC(=O)O)NC(=O)[C@H](C)NC(=O)[C@@H](NC(=O)[C@H](CC(C)C)NC(=O)[C@H](Cc1c[nH]cn1)NC(=O)[C@H](Cc1c[nH]cn1)NC(=O)[C@H](CC(C)C)NC(=O)[C@H](Cc1ccccc1)NC(=O)[C@H](Cc1ccccc1)NC(=O)[C@H](CCCNC(=N)N)NC(=O)[C@H](CCCNC(=N)N)NC(=O)[C@H](CCCNC(=N)N)NC(=O)[C@H](CC(C)C)NC(=O)[C@H](CC(=O)O)NC(=O)[C@H](CCC(N)=O)NC(=O)[C@@H](NC(=O)[C@H](Cc1c[nH]cn1)NC(=O)[C@H](CCCCN)NC(=O)CNC(=O)[C@H](CC(C)C)NC(=O)[C@H](CC(N)=O)NC(=O)[C@H](Cc1c[nH]cn1)NC(=O)[C@H](CCSC)NC(=O)[C@H](CC(C)C)NC(=O)[C@H](CCC(N)=O)NC(=O)[C@@H](NC(=O)[C@H](CCC(=O)O)NC(=O)[C@H](CO)NC(=O)[C@@H](NC(=O)[C@@H](N)CO)C(C)C)[C@@H](C)CC)[C@@H](C)CC)[C@@H](C)CC)[C@@H](C)CC)[C@@H](C)O)C(N)=O [PTH[1-14] PTHrP[15-36]] (H-SVSEIQLMHNLGKHIQDLRRRFFLHHLIAEIHTAK(X1)I-NH2; N-terminus assumed) |  |  | 0.0022 ± 0.0009 | 350000 ± 40000 | 106 ± 1 |  |
